Measurements: PubChem BioAssay AID624258 (Broad Institute, 2012)
Activity calls are given as the source filed them. No rule for the calls is given here.

Tested on: S. cerevisiae SKN7-toxicity growth rescue, plate reader
Assay: SKN7 mediated toxicity in Saccharomyces cerevisiae, growth rescue counterscreen, dose confirmation (AID 624258);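 also: growth read after three days of incubation at 30 °C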

SMILES	AC40
COc1ccccc1C1CCN(c2cc(O)ccc2[N+](=O)[O-])CC1	2.83 µM
Cc1noc2ncnc(SCc3ccc(C(F)(F)F)cc3)c12	0.965 µM
CNC(=S)Nc1ccc(C23CC4CC(CC(C4)C2)C3)cc1	2.47 µM
Cc1nn2c(-c3ccncc3)nnc2c2ccccc12	> 6.8 µM (inactive)
Cc1ccc(NC2=C(NC(=O)c3ccccc3)C(=O)c3ccccc3C2=O)cc1Cl	4.15 µM
CC(C)(C)n1nc(-c2ccc(F)cc2)c2c(N)ncnc21	15.4 µM
O=C(COc1ccc(Cl)cc1)NCCSCc1cccc(Cl)c1	3.16 µM
COc1ccc(N=N/C(=C\O)C(=O)c2cccs2)cc1	1.32 µM
C=CCN(CC=C)C(=S)NC(=O)c1ccc(OC)c(Br)c1	0.652 µM
C=CS(=O)(=O)c1ccc(Oc2ccc(S(=O)(=O)C=C)cc2)cc1	7.95 µM
CCCCNC1=CC(=O)C(=O)c2ccccc21	17.5 µM
CCCCOc1ccc2c(c1)C(=O)c1cc(O)ccc1-2	1.93 µM
Cc1ccc(NC2(c3nnnn3-c3c(C)cccc3C)CCCCC2)cc1	> 19.5 µM (inactive)
CCOC(=O)c1cccc2c1-c1ccccc1/C2=N/O	1.91 µM
CC(=O)NC(c1ccc(Cl)cc1Cl)c1ccc2cccnc2c1O (stereo not given)	1.38 µM
CSc1nccc(NC(=O)c2ccc(C(C)(C)C)cc2)n1	7.82 µM
O=C(Nc1cccc(-c2nc3ccccc3s2)c1)c1cccs1	1.34 µM
Cc1ccc(S(=O)(=O)N2CCOC23CCN(C(=O)c2cc(Cl)ccc2Cl)CC3)cc1	7.25 µM
O=C(O)c1ccc(C(=O)c2cc([N+](=O)[O-])cc([N+](=O)[O-])c2)cc1	15.7 µM
O=Nc1c(O)n(Cc2ccc(Cl)c(Cl)c2)c2ccccc12	8.74 µM
O=Cc1cc(N=Nc2ccccc2Cl)ccc1O	0.446 µM
Cc1cc(/C=N/n2cnnc2)c(C)n1-c1ccc(OCc2ccc(F)cc2)cc1	0.516 µM

SMILES	AC40
Cc1cc2[nH]c3c4ccccc4nc(C)c3c2cc1C	11.2 µM
COc1ccc(N=NC2=C(O)CC(C)(C)CC2=O)c(OC)c1	0.306 µM
c1cncc(-c2nnc(-c3cccnc3)nn2)c1	8.28 µM
COc1ccc2c(c1)S/C(=C\C(=O)c1ccncc1)N2C	1.76 µM
Cc1ccc(CNC(=O)CSc2ccc(-c3ccccn3)nn2)cc1	2.75 µM
CCN=c1scc(C)n1/N=C/c1ccc(O)c(O)c1O	7.51 µM
Cc1nc(Sc2ccc(Cl)cc2)c(C#N)c(C)c1[N+](=O)[O-]	0.937 µM
COc1ccc(OC)c2c1C(=O)C(Cl)=C(Cl)C2=O	0.66 µM
COc1ccc2nc(NN=C(C)c3ccccn3)cc(C)c2c1	3.23 µM
CSC1=NC(=O)/C(=C/c2ccc(SC)cc2)S1	2.61 µM
CCCNC(=O)c1ccc2c(=O)c(O)c(-c3ccc(F)cc3)[nH]c2c1	2.31 µM
Cc1csc2nc(O)c(C(=O)NCCCc3ccccc3)c(=O)n12	0.801 µM
COc1ccc(-c2csc(NC(=O)c3ccccc3F)c2C(=O)O)cc1	0.644 µM
Cc1ccc(C(=O)Sc2cccccc2=O)cc1	0.322 µM
O=[N+]([O-])c1cc(Cl)ccc1Sc1ccccn1	17.3 µM
O=C(C1=C(Nc2ccccc2)c2ccccc2S(=O)(=O)N1)c1ccccc1	2.51 µM
Cc1ccc(-n2nnnc2C(Cl)c2nnnn2-c2ccc(C)cc2)cc1	0.497 µM
CCCCCCCCCCn1c2c(c(=N)c3c1CCC3)CCC2	> 6.8 µM (inactive)
O=C(COC(=O)c1ccc([N+](=O)[O-])o1)NCc1ccc(F)cc1	6.69 µM
COc1ccc(S(=O)(=O)N(C(=O)c2ccncc2)c2ccc(OC(=O)c3ccncc3)cc2)cc1	1.88 µM
CC(C)(C)c1ccc(-n2nc(C#N)c(Cl)cc2=O)cc1	0.292 µM
CCc1ccc([C@@H]2CC=C(C(=O)O)[C@H](c3ccc(Cl)cc3)N2S(=O)(=O)c2ccc(C)cc2)cc1	4.51 µM

SMILES	AC40
COc1cc(OC)c(-c2c3cc(O)c(=O)cc-3oc3cc(O)c(O)cc23)cc1OC	1.57 µM
CC1(C(=O)OCC(=O)Nc2ccc3ccccc3c2)CC1(Cl)Cl (stereo not given)	17.6 µM
O=C1c2ccccc2C(=O)c2c1oc(C(F)(F)F)c2C(=O)c1ccccc1	2.6 µM
O=C1c2ccccc2NC(c2ccc(-c3cccc([N+](=O)[O-])c3)o2)N1O (stereo not given)	4.74 µM
COc1ccc(-n2nc(C#N)c(Cl)cc2=O)cc1	5.22 µM
CCCCC(=O)NC(c1ccc(OC)c(OC)c1)c1ccc2cccnc2c1O (stereo not given)	1 µM
O=[N+]([O-])c1ccc(O)c(/C=N/Nc2ccccn2)c1	1.42 µM
O=c1c(Cl)c(Cl)cnn1Cc1nnc(-c2ccc(Cl)cc2)o1	7.97 µM
CCOC(=O)c1ccc(NC(=O)CC2OCCN(CC)C2=O)cc1 (stereo not given)	5.81 µM
O=C(O)c1cccc(NN=C2c3ccccc3-c3ccccc32)c1	3.11 µM
O=S(=O)(CCSc1nc2ccccc2o1)c1nc2ccccc2s1	3.62 µM
Cc1ccc(NC(=O)c2cc(N3C(=O)C=CC3=O)ccc2Cl)cc1C	0.342 µM
C/C(CC(=O)Nc1ccccn1)=N\NC(=O)c1ccccc1O	5.11 µM
Cc1ccccc1CSCCNC(=O)COc1ccc(Cl)cc1	7.18 µM
O=C1C=C(Nc2cccnc2)c2ccccc2C1=O	11 µM
COc1cccc(/C=N/Nc2ncc(C(F)(F)F)cc2Cl)c1O	1.11 µM
Cc1ccc(-c2nn(C(C)(C)C)c3ncnc(N)c23)cc1	9.29 µM
CNc1ccc(C=C2C=Cc3ccccc32)cc1	0.998 µM
CN(C1=C(NC(=O)c2ccc(Cl)cc2)C(=O)c2ccccc2C1=O)c1ccccc1	4.87 µM
O=c1[nH][nH]cc1C=Nc1ccccc1O	2.18 µM
COc1ccccc1-c1cc(C(F)(F)F)nc(S(C)(=O)=O)n1	1.71 µM
CCCc1cc(-c2n[nH]c(=S)n2-c2cccc(C)c2)cs1	17 µM

SMILES	AC40
Cc1nn(-c2nnc(NCc3ccccc3)nn2)c(C)c1Br	6.94 µM
CC1=C(C)/C(=N\OS(=O)(=O)c2ccc(C)cc2)C=CC1=O	1.11 µM
CCOC(=O)N1CCN(S(=O)(=O)c2ccc(C(=O)NNc3nc4ccc(Cl)cc4s3)cc2)CC1	6.89 µM
CCN(CC)c1ccc(/C=N/NC(=O)c2cccc(S(=O)(=O)N3CCOCC3)c2)c(O)c1	1.39 µM
CCC(=O)NC(c1cc(Cl)c2cccnc2c1O)C(C)C (stereo not given)	3.15 µM
CC(C)n1cnc2c(NCc3ccccc3)cc(Cc3ccc(F)cc3)cc21	3.4 µM
O=C(C=Cc1cccc(O)c1)c1ccccc1O	1.43 µM
CCOC(=O)c1ccc(NC(=O)CC2C(=O)OCCN2CC)cc1 (stereo not given)	4.89 µM
Cc1ccc(NC2=CC(=O)C(=O)c3ccccc32)c(C)c1	18.7 µM
Cc1ccc(S(=O)(=O)N2[C@@H](c3ccc(Cl)cc3)C(C(=O)O)=CC[C@H]2c2ccc(Cl)c(Cl)c2)cc1	3.31 µM
Cc1ccc(C2(c3ccc(C)cc3)CC2C(=O)Nc2ccc([N+](=O)[O-])cc2O)cc1 (stereo not given)	6.78 µM
CC(C)CN(C(=O)c1cccc(S(=O)(=O)N2CCN(Cc3ccccc3)CC2)c1)C1CCS(=O)(=O)C1 (stereo not given)	8.01 µM
C(=N\Nc1nncc2ccccc12)/c1ccccn1	3.27 µM
O=C1Cc2ccccc2C(=O)N1CCc1ccccc1	10.5 µM
Clc1cccc(N/N=C(\Cc2nc3ccccc3[nH]2)c2ccccc2)c1	2.61 µM
CCOC(=O)/C(=C/c1ccc(OC(=O)c2ccccc2)cc1)C(C)=O	1.83 µM
Cn1nc(C(F)(F)F)c(C#N)c1N1CCN(c2ccccc2)CC1	17.6 µM
CCOc1ccc(-n2c(O)c(/C=N/NC(=O)C3COc4ccccc4O3)c3ccccc3c2=O)cc1 (stereo not given)	2.18 µM
N#C/C(=C\c1cccnc1)c1ccc([N+](=O)[O-])cc1	16.7 µM
